From patent publication US6469063B1, “Inhibition of inflammation via inhibition of COX-2 gene transcription” (City of Hope, priority 1999, dated 2002)
pIC50: −log10 of the molar value. Values joined by “and” are separate entries in the source; they are usually repeats but may differ in a detail not shown here. Identical values can stand only once. “Also recorded” adds a separate entry of the source.

What was measured:
COX-2 protein [1] = experiment: Western immunoblot of COX-2 protein expression in RIN m5F cells; format: cell-based, rat; conditions: 12-HETE 1-10 nM, 24 hours; for increase in COX-2 protein: IL-1β 0.3 ng/ml
Procedure: (§1) RIN m5F cells were cultured to near confluence in RPMi-1640 medium (Life Technologies, Inc., Grand Island, N.Y.) plus 10% FCS plus 1% HEPES and penicillin/streptomycin. Prior to addition of IL-1β the cells were depleted in RPMI-1640 medium plus 0.2% BSA for 24 hours. The cells were gently washed in PBS and depletion medium was added back. At this time CDC (Biomol Research Lab, Inc., Plymouth Meeting, PA) (1-10 μM) was added in certain experiments 60 minutes prior to IL-1β addition. 12-HETE (1-100 nM) and 15-HETE (1-100 nM) (Biomol Research Lab, Inc., Plymouth Meeting, Pa.) were added to certain experiments in 0.1% ethanol. The cells were cultured for an additional 24 hours at which time medium was collected for PGE2 assay. For mRNA experiments, total RNA was extracted from RIN m5F cells 3 hours after the addition of IL-1 β, 12-HETE, or 15-HETE. 12HETE and 15-HETE were stored at −70 C. in the dark and added to cell culture dishes in the dark. Control experiments included the addition of 0.1% ethanol alone to RIN m5F cell cultures.
This Example investigates the mechanism(s) of this resistance. RIN m5F cells, cultured as set forth in Example 1, were stimulated with IL-1β and 12-HETE and total protein extracts were used for Western immunoblotting with an anti-COX-2 antibody.
The RIN m5F cells (−300 per blot) were lysed in a 1% Triton-0.1% SDS buffer in normal saline (pH 7.4) with 10 mM HEPES plus 1 mM EDTA and standard protease inhibitors. Cell lysates were centrifuged at 14,000×9 for 10 minutes and a modified BCA protein assay was performed. Protein aliquots (50 μg per sample) were treated with Laemmeli sample buffer and then heated to 100° C. for 5 minutes. Proteins were separated on 10% SDS-PAGE and transferred to polyvinylidene difluoride membranes (Immobilon-P) in 10 mM CAPS buffer, 10% methanol at pH 11. The immunoblots were blocked overnight in 5% nonfat dried milk in Tris buffer containing 0.1% Tween-20. […]

COX-2 mRNA = experiment: Semi-quantitative RT-PCR of COX-2 gene expression in RIN m5F cells; format: cell-based, rat; conditions: IL-1β 0.3 ng/ml, HETEs 1-100 nM
Procedure: as §1
(§2) RIN m5F cells were cultured as set forth in Example 1, in the presence or absence of IL-1β (0.3 ng/ml), 12-S-HETE (1-100 nM), or 15-S-HETE (1-100 nM) for […]. Total RNA was extracted and semiquantitative RT-PCR was performed using COX-2 specific primers.
Total RNA was extracted from RIN m5F cells with RNA STAT-60 (Tel-Test, Inc., Friendswood, Tex.). RNA (1 μg) was diluted in 12.5 μl DEPC-H20 and reverse transcribed with the 1st-Strand™ cDNA Synthesis Kit (CLONTECH laboratories, Inc., Palo Alto, Calif.), using oligo dT primers, recombinant RNase inhibitor, and MMLV reverse transcriptase to generate template cDNA for PCR amplification. Each PCR reaction was done on RNA from one 100 mm culture dish for the stated experimental conditions. Twenty picomoles of each primer (shown below) was mixed with 1 unit of Taq gold polymerase (Perkin Elmer, Inc.) in 50 μl final volume. Samples were amplified with an initial 45 second denaturation step at 94° C. followed by 25 cycles of 45 seconds at 60° C., and 25 cycles of 2 minutes at 72° C.. The last cycle was extended for an additional 7 minutes at 72° C. PCR cycling was done with a Gene Amp PCR System 2400 (Perkin Elmer/Cetus Corp., Norwalk, Conn.). DNA primers were synthesized in the DNA/RNA Core Chemistry Laboratory at City of Hope National Medical Center. The sequences of the primers are shown below.
PCR products were analyzed by electrophoresis with 1.8% agarose gel. The DNA was transferred to nylon membranes and hybridized sequentially to ^32P-labeled probes for COX-1, COX-2, and GAPDH using a random Primed DNA labeling kit (Boehringer Mannheim). GAPDH was used as an internal control. Hybridization and autoradiography were performed according to previously published methods.

COX-1 mRNA = experiment: Semi-quantitative RT-PCR of COX-1 gene expression in RIN m5F cells; format: cell-based, rat; conditions: same experiments as COX-2 mRNA
Procedure: as §1, §2
Total RNA was extracted from RIN m5F cells with RNA STAT-60 (Tel-Test, Inc., Friendswood, Tex.). RNA (1 μg) was diluted in 12.5 μl DEPC-H20 and reverse transcribed with the 1st-Strand™ cDNA Synthesis Kit (CLONTECH laboratories, Inc., Palo Alto, Calif.), using oligo dT primers, recombinant RNase inhibitor, and MMLV reverse transcriptase to generate template cDNA for PCR amplification. Each PCR reaction was done on RNA from one 100 mm culture dish for the stated experimental conditions. Twenty picomoles of each primer (shown below) was mixed with 1 unit of Taq gold polymerase (Perkin Elmer, Inc.) in 50 μl final volume. […]
PCR products were analyzed by electrophoresis with 1.8% agarose gel. […]

[2] = test system: PGE2 production (COX-2 activity); experiment: PGE2 production in RIN m5F cells (RIA of conditioned medium); format: cell-based, rat; conditions: for PGE2 production in conditioned medium: 24 hours after addition of agent
Procedure: as §1
In addition, PGE2 production was measured under the same conditions, but over a 24 hour period. COX-2 activity was determined by measuring the accumulation of PGE2 in the conditioned media. Cells were cultured in 24 well plates for 24 hours and subject to the experimental conditions described above. PGE2 was measured in conditioned medium using a commercial RIA kit. Statistical analysis of PGE2 levels was performed using the Student's t-test with GraphPad Prism™ software (GraphPad Software, Inc, San Diego, Calif.).

COX-2 gene transcription = conditions: higher concentrations; cited from earlier work
prostaglandin synthesis = conditions: 10-100 mg/kg; cited from earlier work
COX-2 protein [3] = experiment: Western immunoblot of COX-2 protein in cultured intact porcine pancreatic islets; format: cell-based; conditions: 24 hours
Procedure: The RIN m5F cells (−300 per blot) were lysed in a 1% Triton-0.1% SDS buffer in normal saline (pH 7.4) with 10 mM HEPES plus 1 mM EDTA and standard protease inhibitors. Cell lysates were centrifuged at 14,000×9 for 10 minutes and a modified BCA protein assay was performed. Protein aliquots (50 μg per sample) were treated with Laemmeli sample buffer and then heated to 100° C. for 5 minutes. Proteins were separated on 10% SDS-PAGE and transferred to polyvinylidene difluoride membranes (Immobilon-P) in 10 mM CAPS buffer, 10% methanol at pH 11. The immunoblots were blocked overnight in 5% nonfat dried milk in Tris buffer containing 0.1% Tween-20. The blots were incubated for 2 hours at room temperature with anti COX-2 antibodies (Cayman Chemical Co., Ann Arbor, Mich.) diluted 1:2000 in the same Tris buffer without nonfat dried milk. The blots were washed and then incubated with horseradish peroxidase conjugated secondary antibodies at 1:2000 dilution. The protein bands were visualized with enhanced chemiluminescence reagents using X-AR film.
Next, Western immunoblots were performed on protein extracts from porcine islets treated in a similar fashion with IL-1β and lysed as set forth about for RIN m5F cells. Because of the concern that 12-HETE would not permeate the islet mass, the 12-LO inhibitor CDC (1 μM) was used instead with or without the addition of IL-1β, in order to determine the role of the 12-LO pathway on COX-2 protein expression.

12-lipoxygenase = conditions: cited from earlier work
15-lipoxygenase = conditions: cited from earlier work
5-lipoxygenase = target: T1, 5-lipoxygenase (Homo sapiens, UniProt P09917); conditions: cited from earlier work
T1 sequence (P09917 1-674): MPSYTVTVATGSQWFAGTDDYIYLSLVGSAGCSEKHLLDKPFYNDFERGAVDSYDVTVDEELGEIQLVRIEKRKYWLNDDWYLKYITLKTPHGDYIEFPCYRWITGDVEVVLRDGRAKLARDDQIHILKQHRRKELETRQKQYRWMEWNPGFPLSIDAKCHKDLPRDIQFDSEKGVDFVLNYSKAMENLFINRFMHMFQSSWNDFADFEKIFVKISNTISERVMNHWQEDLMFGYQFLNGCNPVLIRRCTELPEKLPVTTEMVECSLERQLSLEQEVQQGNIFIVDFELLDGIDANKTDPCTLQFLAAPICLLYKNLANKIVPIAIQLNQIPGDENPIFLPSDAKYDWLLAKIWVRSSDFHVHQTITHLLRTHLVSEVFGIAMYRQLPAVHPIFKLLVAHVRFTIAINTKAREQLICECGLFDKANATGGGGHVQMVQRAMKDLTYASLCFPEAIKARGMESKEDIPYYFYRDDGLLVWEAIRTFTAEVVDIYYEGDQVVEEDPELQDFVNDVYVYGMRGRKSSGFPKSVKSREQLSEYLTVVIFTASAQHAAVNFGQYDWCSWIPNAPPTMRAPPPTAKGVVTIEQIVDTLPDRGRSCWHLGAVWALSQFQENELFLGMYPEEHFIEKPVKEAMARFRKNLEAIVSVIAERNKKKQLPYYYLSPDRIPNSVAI

HIT cells = HIT cells treated with IL-1β for 24 hours; cited from earlier work
[4] = test system: leukocyte influx and prostaglandin synthesis; conditions: oral, 3 mg/kg, over a 24 hour period; cited from earlier work
PGE2 production = PGE2 production in islets from C57BL/6 and 12-LO knockout mice; format: cell-based, mouse; conditions: for PGE2 generated by IL-1β stimulated islets: 24 hours
Procedure: Generation of 12-LO knockout has been previously described. All animal studies were performed in accordance with guidelines set forth by the Research Animal Care Committee of City of Hope National Medical Center. Islet isolation and culturing techniques have been detailed previously. Briefly, mouse pancreas was removed, minced, and poured into a siliconized 25 ml Ehrlenmeyer flask with Type Xl collagenase solution (Sigma Chemical Co, St. Louis, Mo.). The pancreatic digest was incubated in a shaker-type water bath at 37 C. for 6-10 minutes. The digest was centrifuged, poured into a black back petri dish, and islets were picked by hand under a microscope. The islets were aliquoted into sterile 6-well plates (Sarstedt, Newton, N.C.) and cultured in RPMI 1640 medium containing 11 mM glucose and supplemented with 10% FCS and 1% HEPES. Typically, we isolate −75-100 islets per mouse. For PGE2 experiments, 100 islets per well in 300 μl RPMI medium were cultured overnight prior to additions. The following morning the medium was changed to RPMI 1640 medium plus 0.2% BSA and the islets were allowed to equilibrate for one hour. Then, IL-1β (R & D Systems, Minneapolis, Minn.) was added to the appropriate experiments. All islet experiments were run in triplicate and repeated three times for reproducibility.
Isolated islets (100 per experiment) were brought to culture and incubated overnight as described. After approximately 18 hours IL-1β was added to the medium and the islets were incubated for an additional 24 hours. PGE2 production was measured as set forth in Example 3.

CCCCC/C=C\C[C@@H](O)/C=C/C=C\C/C=C\CCCC(=O)O [12-HETE, 12-hydroxyeicosatetraenoic acid, reference compound]
COX-2 protein stimulation compared to IL-1β (0.3 ng/ml) (COX-2 protein [1]): equipotent | increase in COX-2 protein (COX-2 protein [1]): 3 fold | increase in COX-2 mRNA expression (COX-2 mRNA): 3 fold | COX-1 mRNA expression / gene transcription (COX-1 mRNA): No appreciable difference; also recorded: neither IL-1β,nor 12-HETE stimulated | increase in PGE2 relative to 15-HETE ([2]; 24 hours): 10 fold | PGE2 production in conditioned medium [2]: ~1250 pg/mL

CCCCC[C@H](O)/C=C/C=C\C/C=C\C/C=C\CCCC(=O)O [15-HETE, 15-hydroxyeicosatetraenoic acid, reference compound]
increase in COX-2 mRNA expression (COX-2 mRNA): 1.5 fold | PGE2 production in conditioned medium [2]: ~125 pg/mL

O=C(/C=C/c1ccc(O)c(O)c1)OCCc1ccccc1 [CAPE, caffeic acid phenethyl ester]
concentration inhibiting COX-2 gene transcription (COX-2 gene transcription): 35 to 70 µM | prostaglandin synthesis in rat carrageenan air pouch (prostaglandin synthesis): inhibited prostaglandin synthesis in a dose-dependent fashion

N#CC(=Cc1ccc(O)c(O)c1)C(=O)OCC=Cc1ccccc1 [CDC, cinnamamyl-3,4-dihydroxy-α-cyanocinnamate]
effect on IL-1β stimulated increase in COX-2 protein (COX-2 protein [3]; CDC 1 μM plus IL-1β): completely inhibited; also recorded: completely eliminated this response | effect on basal COX-2 protein levels (COX-2 protein [3]; CDC alone): did not appreciably affect | inhibition of IL-1β induced PGE2 production ([2]; CDC 1 μM (1-10 μM)): completely inhibited; also recorded: statistically significant decrease; also recorded: statistically significant inhibition; also recorded: dose-dependent | IL-1β induced PGE2 production in presence of CDC ([2]; CDC 1 μM added 60 minutes before IL-1β, 24 hours): 169+5 pg/ml | pIC50 (12-lipoxygenase): 7.20 | pIC50 (15-lipoxygenase): 5.72 | pIC50 (5-lipoxygenase): 5.48

CS(=O)(=O)Nc1ccc([N+](=O)[O-])cc1OC1CCCCC1 [NS-398]
glucose-stimulated insulin secretion (HIT cells): partially restored

CS(=O)(=O)Nc1ccc(Oc2ccc(F)cc2)s1 [RWJ63556]
inhibition of leukocyte influx [4]: significant sustained inhibition | inhibition of prostaglandin synthesis [4]: significant sustained inhibition

interleukin-1β [IL-1β]
increase in COX-2 protein (COX-2 protein [1]): 2.5 fold | increase in COX-2 protein (COX-2 protein [3]; IL-1β 0.3 ng/ml): 3 fold | increase in COX-2 mRNA expression (COX-2 mRNA): 2 fold | increase in COX-2 mRNA expression (COX-2 mRNA; listed as IL-1 β): 2 fold and 1.5 fold | COX-1 mRNA expression / gene transcription (COX-1 mRNA): neither IL-1β,nor 12-HETE stimulated | COX-1 mRNA expression / gene transcription (COX-1 mRNA; listed as IL-1 β): No appreciable difference | PGE2 production in conditioned medium [2]: ~500 pg/ml and 388+27 pg/ml | PGE2 production upon stimulation with IL-1β (words) (PGE2 production; 12-LO knockout mouse islets): fail to stimulate prostaglandin E2 production | PGE2 generated by IL-1β stimulated islets (PGE2 production; 12-LO knockout mouse islets): 78+15 pg/ml | PGE2 production upon stimulation with IL-1β (words) (PGE2 production; 12-LO knockout mouse islets, listed as IL-1 β): no appreciable PGE2 production | increase in PGE2 production with IL-1β stimulation (PGE2 production; C57BL/6 mouse islets): 8 fold and 7 fold | PGE2 generated by IL-1β stimulated islets (PGE2 production; C57BL/6 mouse islets): 5405+1012 pg/ml
